The source made the active and inactive calls.
Assays:
[1] = molecular target: Peroxisome proliferator-activated receptor gamma/Nuclear receptor corepressor 2 (Homo sapiens, UniProt P37231+Q9Y618); type: functional
[2] = molecular target: Photoreceptor-specific nuclear receptor (Homo sapiens, UniProt Q9Y5X4); type: functional;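 also: potency for compounds that break the NR2E3 corepressor complex and count as activators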
[3] = test system: HeLa; experiment: Cytotoxicity counterscreen assay for transcriptional activators of heat shock protein 70 (Hsp70). [Related pubchem assays: 1203, 1252 ]; type: functional; conditions: Homo sapiens;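 also: cells exposed to compound for 16 hours before readout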
[4] = molecular target: E3 ubiquitin-protein ligase Mdm2 (Homo sapiens, UniProt Q00987); experiment: enhancers of MDM2-luciferase reporter signal, concentration-effect titration, project on inhibitors of MDM2 ubiquitin ligase, cellular assay, luminescent readout, 384-well plate format (AID 1394); type: functional;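 also: MDM2 E3 inhibitors raise luminescence so EC50 is for signal enhancement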
[5] = molecular target: G2/mitotic-specific cyclin-B1 (Homo sapiens, UniProt P14635); experiment: Counterscreen assay for inhibitors of Wee1 degradation: dose response cell-based assay to identify inhibitors of cyclin B degradation. [Related pubchem assays: 1410, 1321 ]; type: functional
Sequence of G2/mitotic-specific cyclin-B1 (P14635 whole entry): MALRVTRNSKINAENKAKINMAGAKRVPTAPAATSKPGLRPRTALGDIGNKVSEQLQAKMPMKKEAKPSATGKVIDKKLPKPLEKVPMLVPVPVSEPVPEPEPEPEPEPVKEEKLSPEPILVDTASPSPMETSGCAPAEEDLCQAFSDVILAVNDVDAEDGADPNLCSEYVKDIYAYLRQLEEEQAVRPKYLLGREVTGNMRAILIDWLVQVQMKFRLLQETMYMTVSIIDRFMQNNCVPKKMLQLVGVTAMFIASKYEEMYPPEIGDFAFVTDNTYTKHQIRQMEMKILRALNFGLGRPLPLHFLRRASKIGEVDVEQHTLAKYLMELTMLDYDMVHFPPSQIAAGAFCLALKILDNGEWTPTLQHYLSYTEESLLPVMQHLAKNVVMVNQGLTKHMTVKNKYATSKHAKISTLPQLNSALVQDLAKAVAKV

[6] = test system: BJ; experiment: cytotoxicity toward BJ-TERT-LT-ST fibroblasts, dose response, cell-based, RAS-independent, luminescence (AID 1935); type: functional; conditions: Homo sapiens;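 also: BJ fibroblasts immortalized with TERT plus LT and ST oncogenes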
[7] = molecular target: Wee1-like protein kinase (Homo sapiens, UniProt P30291); experiment: Dose Response Cell-based Assay for Inhibitors of Wee1 Degradation. [Related pubchem assays: 1410, 1321 ]; type: functional
Sequence of Wee1-like protein kinase (P30291 whole entry): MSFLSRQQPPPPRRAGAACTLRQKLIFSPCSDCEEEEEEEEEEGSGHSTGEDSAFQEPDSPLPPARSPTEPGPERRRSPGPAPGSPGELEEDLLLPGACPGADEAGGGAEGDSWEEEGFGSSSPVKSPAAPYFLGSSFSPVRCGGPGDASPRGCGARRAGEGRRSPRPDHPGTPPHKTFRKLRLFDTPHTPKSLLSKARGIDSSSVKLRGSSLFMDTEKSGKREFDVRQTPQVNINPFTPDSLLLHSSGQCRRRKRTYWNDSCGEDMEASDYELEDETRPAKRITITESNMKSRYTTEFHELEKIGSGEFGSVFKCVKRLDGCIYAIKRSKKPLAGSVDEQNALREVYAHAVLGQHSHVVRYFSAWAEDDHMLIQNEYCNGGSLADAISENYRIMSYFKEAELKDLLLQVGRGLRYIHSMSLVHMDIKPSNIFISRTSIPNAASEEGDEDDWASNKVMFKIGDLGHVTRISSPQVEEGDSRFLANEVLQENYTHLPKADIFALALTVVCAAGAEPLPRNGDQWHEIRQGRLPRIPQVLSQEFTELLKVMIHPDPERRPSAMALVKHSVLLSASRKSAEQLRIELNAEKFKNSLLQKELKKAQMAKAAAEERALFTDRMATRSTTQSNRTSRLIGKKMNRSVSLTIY

[8] = test system: BJ; experiment: cells; type: functional, cell-based; conditions: Homo sapiens
[9] = cytotoxicity toward DRD oncogenic fibroblasts, dose response, cell-based, non-viral oncogenic, luminescence (AID 1934); type: functional; conditions: Homo sapiens
[10] = test system: BJ; experiment: cytotoxicity toward BJ-TERT fibroblasts, dose response, cell-based, RAS-independent, luminescence (AID 1933); type: functional; conditions: Homo sapiens
[11] = molecular target: T1, Estrogen receptor (Homo sapiens, UniProt P03372); experiment: ERα–SRC-3 coactivator interaction inhibitors, confirmation, orthogonal assay, biochemical, ELISA, streptavidin-HRP readout (AID 1079)
T1 sequence (P03372 whole entry): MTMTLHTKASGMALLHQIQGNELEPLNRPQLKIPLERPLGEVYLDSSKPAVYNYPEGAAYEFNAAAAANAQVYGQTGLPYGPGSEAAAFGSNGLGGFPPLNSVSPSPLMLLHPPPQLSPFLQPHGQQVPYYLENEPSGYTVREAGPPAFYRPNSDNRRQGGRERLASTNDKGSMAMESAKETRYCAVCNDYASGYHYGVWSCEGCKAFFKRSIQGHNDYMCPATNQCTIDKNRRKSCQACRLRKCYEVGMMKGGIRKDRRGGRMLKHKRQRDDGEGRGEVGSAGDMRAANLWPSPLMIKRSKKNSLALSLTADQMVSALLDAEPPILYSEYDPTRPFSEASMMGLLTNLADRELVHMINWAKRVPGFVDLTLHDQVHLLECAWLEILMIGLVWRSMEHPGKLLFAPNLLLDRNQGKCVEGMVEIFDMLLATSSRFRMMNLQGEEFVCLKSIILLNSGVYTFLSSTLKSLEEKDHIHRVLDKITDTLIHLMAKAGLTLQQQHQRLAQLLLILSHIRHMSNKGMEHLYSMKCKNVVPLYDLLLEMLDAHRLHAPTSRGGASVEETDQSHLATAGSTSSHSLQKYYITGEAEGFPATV

[12] = molecular target: Neuropeptide Y receptor type 1 (Homo sapiens, UniProt P25929); type: functional;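 also: HEK293 cells with a CNG channel challenged with NPY then isoproterenol; potency as antagonist that reverses NPY suppression of cAMP signal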
[13] = molecular target: Neuropeptide Y receptor type 2 (Homo sapiens, UniProt P49146); type: functional, cell-based;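 also: HEK293 cells expressing the receptor and a CNG channel; stimulus was NPY near EC95 followed by isoproterenol to raise cAMP; antagonist potency measured as restoring cAMP signal that NPY suppresses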
Sequence of Neuropeptide Y receptor type 2 (P49146 whole entry): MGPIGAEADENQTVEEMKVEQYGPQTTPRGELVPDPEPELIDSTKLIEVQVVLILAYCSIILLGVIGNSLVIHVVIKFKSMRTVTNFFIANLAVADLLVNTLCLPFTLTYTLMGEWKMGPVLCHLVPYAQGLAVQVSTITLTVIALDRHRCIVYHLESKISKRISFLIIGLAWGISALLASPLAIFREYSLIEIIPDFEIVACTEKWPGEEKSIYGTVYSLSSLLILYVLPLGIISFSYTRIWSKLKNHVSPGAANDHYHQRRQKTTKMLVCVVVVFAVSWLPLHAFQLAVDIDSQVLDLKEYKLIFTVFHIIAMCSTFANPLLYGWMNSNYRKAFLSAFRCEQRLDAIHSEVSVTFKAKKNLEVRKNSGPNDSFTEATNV

[14] = molecular target: Heat shock protein HSP 90-alpha (Homo sapiens, UniProt P07900); type: functional, organism-based
[15] = molecular target: NS3 (Hepatitis C virus, UniProt A3EZJ3); experiment: PubChem AID 2173; parameters: species or system Hepacivirus hominis
[16] = test system: INS1; experiment: beta cell apoptosis inhibitors, cytokine rescue, dose response, luminescence, retest (AID 449756); type: functional, cell-based; conditions: Rattus norvegicus;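 also: cell death triggered by IL-1 beta plus TNF-alpha plus IFN-gamma mixture; protective hits raise ATP signal compared with cytokine alone wells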
[17] = THP-1 cell cytotoxicity, dose response, cytotoxicity control for non-replicating M. tuberculosis project (AID 489025); type: functional
[18] = inhibitors of SNCA 5'UTR-driven reporter translation, confirmation, H4 neuroglioma cells, luminescence (AID 1988); type: functional, cell-based
[19] = test system: Streptococcus; experiment: Group A Streptococcus viability loss, dose response, counter-screen for streptokinase expression inhibitor project, luminescence, BacTiterGlo (AID 1915); type: functional, organism-based;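 also: potency for reduction of bacterial viability or growth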
[20] = Vero E6 cell cytotoxicity, dose response, cytotoxicity control for non-replicating M. tuberculosis project, secondary assay (AID 492998); type: functional, VeroE6; conditions: Vero C1008
[21] = inhibitors of SNCA 5'UTR-driven translation, confirmation, luminescence, H4 neuroglioblastoma cells, dose confirmation (AID 2454); type: functional, cell-based;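 also: H4 neuroglioblastoma cells carrying an alpha-synuclein 5'UTR luciferase reporter; potency for inhibition of the luciferase signal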
[22] = cytotoxicity in HEK-293T cells, dose response, cytotoxicity control for TCR NF-kB inhibitor project, luminescence, T-cell screen hits (AID 489026); type: functional, cell-based;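 also: cells exposed to compound about 14 hours before the viability readout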
[23] = luciferase reporter signal reduction – luminescence, H4-C neuroglioblastoma cells, dose response (AID 2458); type: functional, cell-based;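 also: H4 neuroglioblastoma cells stably carrying a luciferase reporter gene fusion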
[24] = test system: Streptococcus sp. 'group A'; experiment: growth inhibition of control SK(-) GAS strain, dose response, counter-screen for streptokinase expression inhibitor project, luminescence, kanamycin, BacTiterGlo, confirmation (AID 1900); type: functional, organism-based
[25] = cells; type: functional, cell-based
[26] = microbe, parasite or virus in culture; type: functional; conditions: Mycobacterium tuberculosis
[27] = cells; type: functional
[28] = molecular target: T2, Streptokinase A (Streptococcus pyogenes serotype M1, UniProt P10520); experiment: S. pyogenes streptokinase expression inhibitors, potency, dose response, plasminogen activation absorbance, OD405 (AID 1914); type: functional, Streptococcus pyogenes M1 GAS;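 also: secreted streptokinase activity via plasminogen activation per viability signal from cell pellet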
T2 sequence (P10520 whole entry): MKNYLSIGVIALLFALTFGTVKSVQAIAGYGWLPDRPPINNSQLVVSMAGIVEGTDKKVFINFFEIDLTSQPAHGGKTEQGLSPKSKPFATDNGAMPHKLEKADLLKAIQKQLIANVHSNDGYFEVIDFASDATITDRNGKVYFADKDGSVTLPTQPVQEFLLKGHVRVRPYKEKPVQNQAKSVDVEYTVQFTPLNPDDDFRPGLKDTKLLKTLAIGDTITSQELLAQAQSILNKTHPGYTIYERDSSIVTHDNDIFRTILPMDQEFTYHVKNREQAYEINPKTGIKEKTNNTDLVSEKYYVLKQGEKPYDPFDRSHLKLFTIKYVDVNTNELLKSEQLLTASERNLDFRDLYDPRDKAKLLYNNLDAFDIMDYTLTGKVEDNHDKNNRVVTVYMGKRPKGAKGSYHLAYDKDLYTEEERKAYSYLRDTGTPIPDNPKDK

[29] = molecular target: Induced myeloid leukemia cell differentiation protein Mcl-1 (Homo sapiens, UniProt Q07820); type: functional
[30] = HIV-1 Env-mediated cell fusion inhibitors, dose response, CCR5-tropic Env (AID 2279); type: functional

Sequence of Photoreceptor-specific nuclear receptor (Q9Y5X4 whole entry): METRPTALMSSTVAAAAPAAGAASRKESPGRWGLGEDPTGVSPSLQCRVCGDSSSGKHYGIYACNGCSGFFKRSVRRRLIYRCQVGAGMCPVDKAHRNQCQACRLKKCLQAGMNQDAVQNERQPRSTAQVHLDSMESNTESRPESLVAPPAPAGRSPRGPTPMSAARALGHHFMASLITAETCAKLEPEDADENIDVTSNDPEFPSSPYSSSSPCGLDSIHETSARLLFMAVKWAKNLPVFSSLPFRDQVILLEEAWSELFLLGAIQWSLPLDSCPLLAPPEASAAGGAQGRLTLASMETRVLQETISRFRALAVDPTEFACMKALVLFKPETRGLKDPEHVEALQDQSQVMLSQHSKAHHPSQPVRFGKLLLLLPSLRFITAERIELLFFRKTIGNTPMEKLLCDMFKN
Sequence of Peroxisome proliferator-activated receptor gamma/Nuclear receptor corepressor 2 (P37231 whole entry): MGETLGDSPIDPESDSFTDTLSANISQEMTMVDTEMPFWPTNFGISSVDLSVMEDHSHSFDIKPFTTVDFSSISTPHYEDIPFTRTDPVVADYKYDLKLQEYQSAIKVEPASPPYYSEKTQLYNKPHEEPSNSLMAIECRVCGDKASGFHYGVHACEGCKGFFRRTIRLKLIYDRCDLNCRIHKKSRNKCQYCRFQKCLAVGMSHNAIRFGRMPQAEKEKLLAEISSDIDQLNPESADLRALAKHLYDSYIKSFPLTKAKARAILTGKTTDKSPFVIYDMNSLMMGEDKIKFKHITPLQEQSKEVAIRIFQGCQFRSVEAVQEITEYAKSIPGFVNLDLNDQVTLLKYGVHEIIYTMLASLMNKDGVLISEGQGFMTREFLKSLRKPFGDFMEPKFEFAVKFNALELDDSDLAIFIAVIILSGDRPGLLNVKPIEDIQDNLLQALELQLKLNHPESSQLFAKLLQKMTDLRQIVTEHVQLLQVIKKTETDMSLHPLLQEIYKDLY
Sequence of Peroxisome proliferator-activated receptor gamma/Nuclear receptor corepressor 2 (Q9Y618 whole entry): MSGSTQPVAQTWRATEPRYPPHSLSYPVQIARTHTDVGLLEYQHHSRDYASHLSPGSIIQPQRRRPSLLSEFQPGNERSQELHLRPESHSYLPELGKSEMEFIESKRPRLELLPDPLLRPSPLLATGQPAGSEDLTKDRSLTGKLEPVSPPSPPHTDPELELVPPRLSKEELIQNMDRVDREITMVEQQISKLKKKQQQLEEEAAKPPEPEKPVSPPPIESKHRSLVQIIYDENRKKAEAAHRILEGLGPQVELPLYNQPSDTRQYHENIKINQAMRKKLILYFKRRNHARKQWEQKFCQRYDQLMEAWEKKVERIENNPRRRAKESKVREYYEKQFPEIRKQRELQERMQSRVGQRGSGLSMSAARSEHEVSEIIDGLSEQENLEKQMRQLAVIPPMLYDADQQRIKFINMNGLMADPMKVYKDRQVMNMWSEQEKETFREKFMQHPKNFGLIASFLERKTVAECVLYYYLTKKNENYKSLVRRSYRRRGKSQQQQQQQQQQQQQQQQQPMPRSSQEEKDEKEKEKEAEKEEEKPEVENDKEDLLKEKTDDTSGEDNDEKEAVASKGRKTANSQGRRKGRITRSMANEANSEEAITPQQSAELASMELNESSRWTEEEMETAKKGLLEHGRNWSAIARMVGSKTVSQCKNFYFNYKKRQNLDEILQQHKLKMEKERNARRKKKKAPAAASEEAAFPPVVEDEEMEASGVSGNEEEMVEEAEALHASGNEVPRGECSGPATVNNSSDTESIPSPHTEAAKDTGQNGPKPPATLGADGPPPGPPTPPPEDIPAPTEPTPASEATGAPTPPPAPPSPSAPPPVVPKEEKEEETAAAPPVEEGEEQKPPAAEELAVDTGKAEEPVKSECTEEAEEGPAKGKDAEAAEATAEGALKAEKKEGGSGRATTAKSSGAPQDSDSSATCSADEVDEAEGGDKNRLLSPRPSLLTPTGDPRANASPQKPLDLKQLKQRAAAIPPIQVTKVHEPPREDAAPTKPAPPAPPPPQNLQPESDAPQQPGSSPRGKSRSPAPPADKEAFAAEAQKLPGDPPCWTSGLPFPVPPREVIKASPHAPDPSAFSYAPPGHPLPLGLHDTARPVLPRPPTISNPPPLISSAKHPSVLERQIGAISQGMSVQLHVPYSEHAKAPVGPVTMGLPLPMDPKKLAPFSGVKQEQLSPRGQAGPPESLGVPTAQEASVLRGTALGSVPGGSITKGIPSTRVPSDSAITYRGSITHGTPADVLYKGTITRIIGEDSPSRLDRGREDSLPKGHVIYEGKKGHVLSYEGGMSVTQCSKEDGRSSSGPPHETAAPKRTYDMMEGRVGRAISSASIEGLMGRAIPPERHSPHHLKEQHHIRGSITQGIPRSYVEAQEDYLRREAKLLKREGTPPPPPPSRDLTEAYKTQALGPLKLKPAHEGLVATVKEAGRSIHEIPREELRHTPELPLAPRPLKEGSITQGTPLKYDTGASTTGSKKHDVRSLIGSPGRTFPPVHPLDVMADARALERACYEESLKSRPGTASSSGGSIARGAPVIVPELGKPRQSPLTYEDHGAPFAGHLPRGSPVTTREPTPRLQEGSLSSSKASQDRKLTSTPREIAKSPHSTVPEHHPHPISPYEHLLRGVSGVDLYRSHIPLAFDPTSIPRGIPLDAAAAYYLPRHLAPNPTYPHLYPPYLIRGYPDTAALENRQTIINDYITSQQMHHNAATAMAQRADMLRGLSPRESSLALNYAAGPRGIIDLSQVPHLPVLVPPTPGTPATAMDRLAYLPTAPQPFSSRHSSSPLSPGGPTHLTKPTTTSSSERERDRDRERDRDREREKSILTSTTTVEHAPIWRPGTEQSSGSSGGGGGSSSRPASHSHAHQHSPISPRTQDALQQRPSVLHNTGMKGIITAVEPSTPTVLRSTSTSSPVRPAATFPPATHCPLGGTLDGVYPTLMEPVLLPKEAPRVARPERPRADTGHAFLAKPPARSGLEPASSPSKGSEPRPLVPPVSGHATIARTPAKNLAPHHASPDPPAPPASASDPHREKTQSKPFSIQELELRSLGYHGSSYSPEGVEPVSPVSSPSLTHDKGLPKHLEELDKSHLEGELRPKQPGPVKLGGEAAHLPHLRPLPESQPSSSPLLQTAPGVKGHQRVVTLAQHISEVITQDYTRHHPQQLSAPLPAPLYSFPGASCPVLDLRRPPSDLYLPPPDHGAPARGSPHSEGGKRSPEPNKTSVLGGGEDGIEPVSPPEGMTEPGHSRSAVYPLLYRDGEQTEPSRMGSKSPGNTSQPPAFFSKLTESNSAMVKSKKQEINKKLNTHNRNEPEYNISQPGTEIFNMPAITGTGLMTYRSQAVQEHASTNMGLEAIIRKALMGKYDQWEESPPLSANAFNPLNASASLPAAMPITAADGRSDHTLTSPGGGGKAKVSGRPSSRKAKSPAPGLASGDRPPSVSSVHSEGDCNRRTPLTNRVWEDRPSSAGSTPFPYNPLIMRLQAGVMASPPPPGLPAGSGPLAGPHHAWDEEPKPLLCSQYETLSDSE

With `O=C(O)c1cc(-c2ccco2)nc2ccc(Br)cc12` the IC50 [1] was 1.58 µM (active) and the IC50 [2] was > 39.8 µM (not active).

With `C=CS(=O)(=O)c1ccc(Oc2ccc(S(=O)(=O)C=C)cc2)cc1` the CC50 [3] was > 1.22 µM (not active), the EC50 [4] was 2.64 µM (active) and the EC50 [5] was > 5.53 µM (active). The EC50 [6] was > 150 µM (inconclusive), the EC50 [7] was > 49.7 µM (not active) and the EC50 [8] was > 150 µM (inconclusive). The EC50 [9] was 3.83 µM (active) and the EC50 [10] was 2.24 µM (inconclusive).

In the case of `O=C(CCCn1c(=S)[nH]c2ccccc2c1=O)N1CCN(c2ccc(Cl)cc2)CC1`, the IC50 [11] was 19.8 µM (not active).

With `N#Cc1nc(COc2ccc(Cl)cc2)oc1N1CCCCCC1` the IC50 [12] was 6.66 µM (active) and the IC50 [13] was 16.1 µM (not active).

For `O=C(N/N=C/c1cc(Cl)c(O)c(Cl)c1)c1cc2c(ccc3ccccc32)o1`, the AC50 [14] was 4.54 µM (active) and the IC50 [15] was 4.26 µM (active).

With `CCOc1ccc(Nc2cc(C)nc(-n3nc(C)cc3C)n2)cc1` the AC50 [16] was 2.55 µM (active), the CC50 [17] was 357 nM (active) and the EC50 [18] was < 100 nM (active). The EC50 [19] was > 150 µM (not active), the CC50 [20] was 1.14 µM (active) and the EC50 [21] was 880 nM (active). The IC50 [22] was > 80 µM (inactive), the EC50 [23] was 588 nM (active) and the EC50 [24] was 7.01 µM (active). For the same molecule, the EC50 [25] was 969 nM (active), the CC50 [26] was 6.26 µM (active) and the IC50 [27] was 560 nM (active). The EC50 [28] was > 150 µM (not active).

In the case of `CC(C)(C)c1cc(-c2csc(Nc3ccccc3)[n+]2Cc2ccc(C(=O)O)cc2)cc(C(C)(C)C)c1O`, the EC50 [19] was 2.87 µM (active), the EC50 [24] was 1.64 µM (active) and the IC50 [29] was 2.01 µM (active). The IC50 [30] was 20.7 µM (active) and the EC50 [28] was > 150 µM (not active).
